Experimental data: patent US10035789B2, “Compounds useful for treating disorders related to RET” (BLUEPRINT MEDICINES CORPORATION, priority 2016, dated 2018)

Assays:
[1] = molecular target: T1, RET V804L (Homo sapiens, UniProt P07949, V804L); assay: RET V804L Gatekeeper Mutant Assay at KM (Caliper electrophoretic mobility shift); type: biochemical; conditions: 10 μM ATP, 25° C., 120 minutes
T1 construct: purchased ProQinase 1096-0000-1

[2] = molecular target: T2, wild type RET (Homo sapiens, UniProt P07949); assay: RET Wild Type Assay at KM (Caliper electrophoretic mobility shift); type: biochemical; conditions: 25 μM ATP, 25° C., 120 minutes
T2 construct: purchased ProQinase 1090-0000-1
T2 sequence (P07949 29-1114): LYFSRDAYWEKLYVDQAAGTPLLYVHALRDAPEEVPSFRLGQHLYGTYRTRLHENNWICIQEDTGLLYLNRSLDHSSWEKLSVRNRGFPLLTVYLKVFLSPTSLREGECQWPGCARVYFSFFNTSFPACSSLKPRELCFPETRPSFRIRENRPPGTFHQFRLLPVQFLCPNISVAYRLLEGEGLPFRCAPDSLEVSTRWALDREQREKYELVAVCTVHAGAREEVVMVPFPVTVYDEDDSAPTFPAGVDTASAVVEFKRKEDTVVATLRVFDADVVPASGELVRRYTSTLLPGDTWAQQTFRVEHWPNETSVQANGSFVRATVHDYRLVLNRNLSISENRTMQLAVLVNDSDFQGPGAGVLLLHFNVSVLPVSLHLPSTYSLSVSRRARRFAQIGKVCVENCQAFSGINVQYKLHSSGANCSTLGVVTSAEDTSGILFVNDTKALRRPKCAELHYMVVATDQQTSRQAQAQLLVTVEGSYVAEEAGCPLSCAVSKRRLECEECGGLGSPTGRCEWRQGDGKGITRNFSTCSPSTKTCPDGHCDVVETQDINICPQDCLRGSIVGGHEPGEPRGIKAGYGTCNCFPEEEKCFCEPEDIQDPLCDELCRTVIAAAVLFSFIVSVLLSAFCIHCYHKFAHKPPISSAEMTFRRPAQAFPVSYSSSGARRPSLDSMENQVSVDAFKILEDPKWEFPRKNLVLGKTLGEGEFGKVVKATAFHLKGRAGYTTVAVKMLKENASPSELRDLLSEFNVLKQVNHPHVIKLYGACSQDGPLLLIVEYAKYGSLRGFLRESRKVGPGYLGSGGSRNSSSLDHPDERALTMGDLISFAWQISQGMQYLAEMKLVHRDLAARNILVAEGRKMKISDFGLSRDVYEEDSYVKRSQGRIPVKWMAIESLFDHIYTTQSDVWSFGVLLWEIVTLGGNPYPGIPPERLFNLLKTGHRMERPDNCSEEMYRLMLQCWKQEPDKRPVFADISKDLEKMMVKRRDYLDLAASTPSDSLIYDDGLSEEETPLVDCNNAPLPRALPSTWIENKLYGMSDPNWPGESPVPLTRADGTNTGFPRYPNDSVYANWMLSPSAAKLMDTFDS

T1 sequence (P07949 29-1114 V804L): as the sequence (P07949 29-1114) above, with V776L counted along it

Row | SMILES | IC50 [1] [nM] | IC50 [2] [nM]
1 | Cc1cc(Nc2cc(C)[nH]n2)nc(C2CCC(C(=O)N[C@@H](C)c3ccc(-n4cc(F)cn4)nc3)C2)n1 (mixture of isomers) [Compound 106, N—((S)-1-(6-(4-fluoro-1H-pyrazol-1-yl)pyridin-3-yl)ethyl)-3-(4-methyl-6-((5-methyl-1H-pyrazol-3-yl)amino)pyrimidin-2-yl)cyclopentane-1-carboxamide] | < 10 | < 10
2 | Cc1cc(Nc2cc(C)[nH]n2)nc(C2(O)CCC(C(=O)NCc3ccc(-n4nc(C)cc4C)nc3)C2)c1 (mixture of isomers) [Compound 111] | < 10 | < 10
3 | Cc1cc(Nc2cc(C)[nH]n2)nc(C2(O)CCC(C(=O)N[C@@H](C)c3cnc(-n4cc(F)cn4)cn3)C2)c1 (mixture of isomers) [Compound 123] | < 10 | < 10
4 | Cc1cc(Nc2cc(C)[nH]n2)nc(C2(O)CCC(C(=O)NCc3ccc(-n4cc(Cl)cn4)nc3)C2)c1 (mixture of isomers) [Compound 126] | < 10 | < 10
5 | Cc1cc(Nc2cc(C)[nH]n2)nc([C@@H]2CC[C@H](C(=O)N[C@@H](C)c3ccc(-n4cc(F)cn4)nc3)C2)n1 (single isomer, unassigned) [Compound 107] | 10 to 100 | 10 to 100
6 | Cc1cc(Nc2cc(C)[nH]n2)nc([C@H]2CC[C@@H](C(=O)N[C@@H](C)c3ccc(-n4cc(F)cn4)nc3)C2)n1 (single isomer, unassigned) [Compound 108] | 10 to 100 | 10 to 100
7 | Cc1cc(Nc2cc(C)[nH]n2)nc([C@@H]2CC[C@@H](C(=O)N[C@@H](C)c3ccc(-n4cc(F)cn4)nc3)C2)n1 (single isomer, unassigned) [Compound 109] | < 10 | < 10
8 | Cc1cc(Nc2cc(C)[nH]n2)nc([C@H]2CC[C@H](C(=O)N[C@@H](C)c3ccc(-n4cc(F)cn4)nc3)C2)n1 (single isomer, unassigned) [Compound 110] | < 10 | < 10
9 | Cc1cc([C@@H]2CC[C@@](C)(C(=O)N[C@@H](C)c3ccc(-n4cc(F)cn4)nc3)C2)nc(Nc2cc(C)[nH]n2)n1 (single isomer, unassigned) [Compound 116, (1R,3R or 1S,3S)—N—((S)-1-(6-(4-fluoro-1H-pyrazol-1-yl)pyridin-3-yl)ethyl)-1-methyl-3-(6-methyl-2-((5-methyl-1H-pyrazol-3-yl)amino)pyrimidin-4-yl)cyclopentane-1-carboxamide] | < 10 | < 10
10 | Cc1cc([C@@H]2CC[C@](C)(C(=O)N[C@@H](C)c3ccc(-n4cc(F)cn4)nc3)C2)nc(Nc2cc(C)[nH]n2)n1 (single isomer, unassigned) [Compound 117, (1R,3R or 1S,3S)—N—((S)-1-(6-(4-fluoro-1H-pyrazol-1-yl)pyridin-3-yl)ethyl)-1-methyl-3-(6-methyl-2-((5-methyl-1H-pyrazol-3-yl)amino)pyrimidin-4-yl)cyclopentane-1-carboxamide] | < 10 | < 10
11 | Cc1cc(Nc2cc(C)[nH]n2)nc([C@]2(O)CC[C@@H](C(=O)N[C@@H](C)c3ccc(-n4cc(F)cn4)nc3)C2)c1 (single isomer, unassigned) [Compound 121] | – | < 10
12 | Cc1cc(Nc2cc(C)[nH]n2)nc([C@@]2(O)CC[C@H](C(=O)N[C@@H](C)c3ccc(-n4cc(F)cn4)nc3)C2)c1 (single isomer, unassigned) [Compound 122] | < 10 | < 10
13 | Cc1cc(Nc2cc(C3CC3)[nH]n2)nc([C@@]2(O)CC[C@H](C(=O)NCc3ccccc3)C2)c1 [Compound 100] | < 10 | 10 to 100
14 | Cc1cc(Nc2cc(C)[nH]n2)nc([C@@]2(O)CC[C@@H](C(=O)NCc3ccc(-n4cccn4)nc3)C2)c1 [Compound 101] | < 10 | 10 to 100
15 | Cc1cc(Nc2cc(C)[nH]n2)nc([C@]2(O)CC[C@H](C(=O)NCc3ccc(-n4cccn4)nc3)C2)c1 [Compound 102] | 10 to 100 | 10 to 100
16 | Cc1cc(Nc2cc(C)[nH]n2)nc([C@]2(O)CC[C@@H](C(=O)NCc3ccc(-n4cccn4)nc3)C2)c1 [Compound 103] | < 10 | < 10
17 | Cc1cc(Nc2cc(C)[nH]n2)nc([C@@]2(O)CC[C@H](C(=O)NCc3ccc(-n4cccn4)nc3)C2)c1 [Compound 104] | < 10 | 10 to 100
18 | CCOc1ccc(CNC(=O)C2CC[C@](O)(c3cc(C)cc(Nc4cc(C5CC5)[nH]n4)n3)C2)cc1 (stereo partly shown) [Compound 105] | < 10 | < 10
19 | Cc1cc(Nc2cc(C)[nH]n2)nc([C@@H]2CC[C@](C)(C(=O)N[C@@H](C)c3ccc(-n4cc(F)cn4)nc3)C2)n1 [Compound 112] | 10 to 100 | > 100
20 | Cc1cc(Nc2cc(C)[nH]n2)nc([C@H]2CC[C@@](C)(C(=O)N[C@@H](C)c3ccc(-n4cc(F)cn4)nc3)C2)n1 [Compound 113] | 10 to 100 | 10 to 100
21 | Cc1cc(Nc2cc(C)[nH]n2)nc([C@H]2CC[C@](C)(C(=O)N[C@@H](C)c3ccc(-n4cc(F)cn4)nc3)C2)n1 [Compound 114] | < 10 | < 10
22 | Cc1cc(Nc2cc(C)[nH]n2)nc([C@@H]2CC[C@@](C)(C(=O)N[C@@H](C)c3ccc(-n4cc(F)cn4)nc3)C2)n1 [Compound 115] | – | < 10
23 | Cc1cc(Nc2cc(C)[nH]n2)nc(C2(O)CCC(C(=O)N[C@@H](C)c3ccc(-n4cc(F)cn4)nc3)C2)c1 (stereo partly shown) [Compound 118] | < 10 | < 10
24 | Cc1cc(Nc2cc(C)[nH]n2)nc([C@@]2(O)CC[C@@H](C(=O)N[C@@H](C)c3ccc(-n4cc(F)cn4)nc3)C2)c1 [Compound 119] | < 10 | < 10
25 | Cc1cc(Nc2cc(C)[nH]n2)nc([C@]2(O)CC[C@H](C(=O)N[C@@H](C)c3ccc(-n4cc(F)cn4)nc3)C2)c1 [Compound 120] | 10 to 100 | 10 to 100
26 | Cc1cc(Nc2cc(C)[nH]n2)nc([C@@]2(O)CC[C@H](C(=O)N[C@@H](C)c3cnc(-n4cc(F)cn4)cn3)C2)c1 [Compound 124] | < 10 | < 10
27 | Cc1cc(Nc2cc(C)[nH]n2)nc([C@]2(O)CC[C@@H](C(=O)N[C@@H](C)c3cnc(-n4cc(F)cn4)cn3)C2)c1 [Compound 125] | < 10 | 10 to 100
28 | Cc1cc(Nc2cc(C3CC3)[nH]n2)nc([C@@]2(O)CC[C@H](C(=O)NCc3ccc(-n4cc(F)cn4)nc3)C2)c1 [Compound 127] | < 10 | < 10
29 | Cc1cc(Nc2cc(C)[nH]n2)nc([C@]2(O)CC[C@@](C)(C(=O)N[C@@H](C)c3ccc(-n4cc(F)cn4)nc3)C2)c1 [Compound 128] | < 10 | < 10
30 | Cc1cc(Nc2cc(C)[nH]n2)nc([C@@]2(O)CC[C@](C)(C(=O)N[C@@H](C)c3ccc(-n4cc(F)cn4)nc3)C2)c1 [Compound 129] | < 10 | < 10
